Reference: US20190364895A1, “ANTIMICROBIAL COMPOUNDS OR PRECURSORS THEREOF COMRPISING ONE OR MORE CATIONIC CENTERS AND A COATING-INCORPORATION GROUP” (Exigence Technologies Inc., priority 2016, published 2019)

System: E. coli (ATCC 25922)
Experiment: Biocidal activity of coated hard-substrates, ISO 22196 methodology
Assay type: cell-based
Details: 5% FBS and MH Broth
Experimental: Tables 27 to 35 summarize the biocidal activity of the coated hard-substrates as assessed using the ISO 22196 methodology. Briefly, control and chlorinated samples of the coated hard-substrates (chlorinated at 200 ppm for 10 minutes) were challenged with E. coli (ATCC 25922). Using a pipette, 200 μL of test inoculum were transferred at a concentration of 1-2×10^6 CFU/mL (in sterile DI water, 5% fetal bovine serum or 100% Mueller-Hinton broth) onto a 50 mm×50 mm plastic test surface in a sterile petri dish. The test inoculum was covered with a piece of PET (polyethylene terephthalate) film that measured 40 mm×40 mm. A slight pressure was applied to the film so that the test inoculum spread to the edges. The test inoculum was kept within the edges of the film and was capped with the lid of the petri dish. Contact times for the samples were 10, 30 and 60 minutes. Then the samples were quenched with 10 mL of sterile 0.05 M sodium thiosulfate solution to remove all oxidative chlorine in the petri dish. This quenching step was followed by repetitive washing and 1 minute of sonication. […] The plates were incubated at 37° C. for about 16 hours to about 18 hours, and viable bacterial colonies were recorded for kill kinetics analysis. The logarithm reduction was determined as follows: […]

Row | SMILES | biocidal activity (in words)
1 | CCCC[P+](C)(CCCC[P+](CCCCCCCCCC[N+](C)(CCCN)CCCN)(c1ccccc1)c1ccccc1)c1ccccc1.[Br-].[Br-].[Br-] (centres unmarked) [C4-P—C4-P—C10-BIS-C3-NH2] | poor biocidal activity
2 | CC1(C)CC([N+](C)(C)CCCC[P+](CCCC[P+](CCCC[N+](C)(CCCN)CCCN)(c2ccccc2)c2ccccc2)(c2ccccc2)c2ccccc2)CC(C)(C)N1.[Br-].[Br-].[Br-].[Br-] [PIP—C4-P—C4-P—C4-BIS-C3-NH2] | had biocidal activity
